Each molecule was assayed against unphosphorylated-BTK kinase domain (UP-BTK), GST-tagged human BTK (389-659aa) (Homo sapiens (Human), UniProt Q06187) (assay: BTK Kinase Lanthascreen Binding Assay). Settings: Lanthascreen binding, 60 minutes incubation; pIC50 = negative log of the IC50 in molar.
Sequence of unphosphorylated-BTK kinase domain (UP-BTK), GST-tagged human BTK (389-659aa) (Q06187 389-659): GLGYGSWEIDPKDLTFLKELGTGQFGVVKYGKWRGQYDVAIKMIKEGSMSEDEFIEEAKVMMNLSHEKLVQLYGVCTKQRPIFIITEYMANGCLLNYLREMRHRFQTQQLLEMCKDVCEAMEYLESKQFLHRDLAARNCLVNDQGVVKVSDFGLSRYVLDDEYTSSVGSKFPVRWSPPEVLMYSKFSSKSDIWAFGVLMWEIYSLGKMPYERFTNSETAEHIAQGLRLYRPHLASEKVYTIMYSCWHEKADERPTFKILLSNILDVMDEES
Procedure: BTK Kinase Lanthascreen Binding Assay:
A BTK kinase lanthascreen binding assay monitors compound binding to unphosphorylated-BTK kinase domain (UP-BTK), by competing with a fluorescent labeled tracer. […] Data were analyzed using Xlfit™ version 5.3 from ID Business Solutions (Guildford), Microsoft Excel add-in. pIC50 refers to the negative log of the IC50 in molar.
In the case of C=CC(=O)N[C@@H]1CCC[C@@H](NC(=O)c2sc3nccc4c3c2NC(=O)N4c2ccc(Oc3ccccc3)cn2)C1 (relative stereo) [Example 344, N-((1*R,3*R)-3-Acrylamidocyclohexyl)-4-oxo-5-(5-phenoxypyridin-2-yl)-4,5-dihydro-3H-1-thia-3,5,8-triazaacenaphthylene-2-carboxamide], the “BTK_I_binding pIC50” value is reported as 6.11.
CCC(=O)N[C@H]1CCCC[C@H]1NC(=O)c1sc2nccc3c2c1NC(=O)N3c1cnc(Oc2ccccc2)cc1C (relative stereo) [Example 381, 5-(*S)-(4-Methyl-6-phenoxypyridin-3-yl)-4-oxo-N-((1R,2S)-2-propionamidocyclohexyl)-4,5-dihydro-3H-1-thia-3,5,8-triazaacenaphthylene-2-carboxamide] was tested, and the “BTK_I_binding pIC50” value was 6.75.

Same assay, conditions: compound, 50 nM Tracer 236, 2 nM anti-GST antibody, 60 minutes; pIC50 = negative log of the IC50 in molar
With CNC1CC[C@H](NC(=O)c2sc3nccc4c3c2NC(=O)N4c2ccc(Oc3ccccc3)cc2C)C1 (mixture of isomers) [Example 80, 5-(2-Methyl-4-phenoxyphenyl)-N-((1S)-3-(methylamino)cyclopentyl)-4-oxo-4,5-dihydro-3H-1-thia-3,5,8-triazaacenaphthylene-2-carboxamide] the “BTK_I_binding pIC50” value was 6.42.
In the case of Cc1cc(Oc2ccccc2)ccc1N1C(=O)Nc2c(C(=O)N[C@@H]3CCCC[C@@H]3N(C)C)sc3nccc1c23 (relative stereo) [Example 7, N-((1R,2S)-2-(Dimethylamino)cyclohexyl)-5-(*S)-(2-methyl-4-phenoxyphenyl)-4-oxo-4,5-dihydro-3H-1-thia-3,5,8-triazaacenaphthylene-2-carboxamide], the “BTK_I_binding pIC50” value is reported as 7.31.
For CC(=O)N[C@@H]1CC[C@H](NC(=O)c2sc3nccc4c3c2NC(=O)N4c2ccc(Oc3ccccc3)cc2C)C1 (relative stereo) [Example 88, N-((1S,3R)-3-Acetamidocyclopentyl)-5-(*S)-(2-methyl-4-phenoxyphenyl)-4-oxo-4,5-dihydro-3H-1-thia-3,5,8-triazaacenaphthylene-2-carboxamide], the “BTK_I_binding pIC50” value was 7.89.
CNCC(=O)N[C@H]1CCC[C@H](NC(=O)c2sc3nccc4c3c2NC(=O)N4c2ccc(Oc3ccccc3)cc2C)C1 (relative stereo) [Example 250, 5-(*S)-(2-Methyl-4-phenoxyphenyl)-N-((1R,3S)-3-(2-(methylamino)acetamido)cyclohexyl)-4-oxo-4,5-dihydro-3H-1-thia-3,5,8-triazaacenaphthylene-2-carboxamide] was tested, and the “BTK_I_binding pIC50” value was 6.75.
In the case of C=CC(=O)N[C@H]1CC[C@@H](NC(=O)c2sc3nccc4c3c2NC(=O)N4c2ccc(Oc3ccccc3)cc2C)CC1 (single isomer, unassigned) [Example 1, N-((1S,4S)-4-Acrylamidocyclohexyl)-5-(*S)-(2-methyl-4-phenoxyphenyl)-4-oxo-4,5-dihydro-3H-1-thia-3,5,8-triazaacenaphthylene-2-carboxamide], the “BTK_I_binding pIC50” value is reported as 7.61.
With Cc1cc(Oc2ccccc2)ccc1N1C(=O)Nc2c(C(=O)N[C@@H]3CCCC[C@@H]3N)sc3nccc1c23 (single isomer, unassigned) [Example 5, N-((1R,2S)-2-Aminocyclohexyl)-5-(*S)-(2-methyl-4-phenoxyphenyl)-4-oxo-4,5-dihydro-3H-1-thia-3,5,8-triazaacenaphthylene-2-carboxamide] the “BTK_I_binding pIC50” value was 7.69.
Cc1cc(Oc2ccccc2)ccc1N1C(=O)Nc2c(C(=O)N[C@@H]3CCC[C@@H]3O)sc3nccc1c23 (single isomer, unassigned) [Example 8, N-((1R,2S)-2-Hydroxycyclopentyl)-5-(*S)-(2-methyl-4-phenoxyphenyl)-4-oxo-4,5-dihydro-3H-1-thia-3,5,8-triazaacenaphthylene-2-carboxamide] was tested, and the “BTK_I_binding pIC50” value was 7.95.

Same assay, conditions: read-out: BTK_I_binding pIC50 (converted)
Cc1cc(Oc2ccccc2)ccc1N1C(=O)Nc2c(C(=O)NC3CCCCC3O)sc3nccc1c23 (racemic) [Example 27, N-((1RS,2RS)-2-Hydroxycyclohexyl)-5-(2-methyl-4-phenoxyphenyl)-4-oxo-4,5-dihydro-3H-1-thia-3,5,8-triazaacenaphthylene-2-carboxamide] showed an IC50 of 0.11 µM.
With Cc1cc(Oc2ccccc2)ccc1N1C(=O)Nc2c(C(=O)N[C@H]3CCCC[C@@H]3O)sc3nccc1c23 (racemic) [Example 36, N-((1RS,2RS)-2-Hydroxycyclohexyl)-5-(2-methyl-4-phenoxyphenyl)-4-oxo-4,5-dihydro-3H-1-thia-3,5,8-triazaacenaphthylene-2-carboxamide] the IC50 was 0.191 µM.
N[C@H]1CC[C@@H](NC(=O)c2sc3nccc4c3c2NC(=O)N4c2ccc(Oc3ccccc3)cc2)C1 (racemic) [Example 96, N-(rac-(1,3-cis)-3-Aminocyclopentyl)-4-oxo-5-(4-phenoxyphenyl)-4,5-dihydro-3H-1-thia-3,5,8-triazaacenaphthylene-2-carboxamide] showed an IC50 of 0.0776 µM.
Molecule C=CC(=O)NC1CCC(NC(=O)c2sc3nccc4c3c2NC(=O)N4c2ccc(Oc3ccccc3)cc2)C1 (racemic) [Example 109, N-((1RS,3RS)-3-Acrylamidocyclopentyl)-4-oxo-5-(4-phenoxyphenyl)-4,5-dihydro-3H-1-thia-3,5,8-triazaacenaphthylene-2-carboxamide] has an IC50 of 0.0141 µM.
N[C@@H]1CC[C@@H](NC(=O)c2sc3nccc4c3c2NC(=O)N4c2ccc(Oc3ccccc3)cc2)C1 (racemic) [Example 147, trans-N-((1RS,3RS)-3-Aminocyclopentyl)-4-oxo-5-(4-phenoxyphenyl)-4,5-dihydro-3H-1-thia-3,5,8-triazaacenaphthylene-2-carboxamide] showed an IC50 of 0.234 µM.
C=CC(=O)N[C@@H]1CC[C@@H](NC(=O)c2sc3nccc4c3c2NC(=O)N4c2ccc(Oc3ccccc3)nc2)C1 (racemic) [Example 188, N-((1RS,3RS)-3-Acrylamidocyclopentyl)-4-oxo-5-(6-phenoxypyridin-3-yl)-4,5-dihydro-3H-1-thia-3,5,8-triazaacenaphthylene-2-carboxamide] showed an IC50 of 0.0776 µM.
For C=CC(=O)NC1CCC(NC(=O)c2sc3nccc4c3c2NC(=O)N4c2ccc(Oc3ccccc3)cn2)C1 (racemic) [Example 214, N-((1RS,3RS)-3-Acrylamidocyclopentyl)-4-oxo-5-(5-phenoxypyridin-2-yl)-4,5-dihydro-3H-1-thia-3,5,8-triazaacenaphthylene-2-carboxamide], the IC50 was 0.0141 µM.
With C=CC(=O)N[C@@H]1CCC[C@@H](NC(=O)c2sc3nccc4c3c2NC(=O)N4c2ccc(Oc3ccccc3)cn2)C1 (racemic) [Example 216, N-((1RS,3RS)-3-Acrylamidocyclohexyl)-4-oxo-5-(5-phenoxypyridin-2-yl)-4,5-dihydro-3H-1-thia-3,5,8-triazaacenaphthylene-2-carboxamide] the IC50 was 0.0363 µM.
With N[C@@H]1CC[C@H](NC(=O)c2sc3nccc4c3c2NC(=O)N4c2ccc(Oc3ccccc3)nc2)C1 (racemic) [Example 289, racemic cis N-((1RS,3RS)-3-Aminocyclopentyl)-4-oxo-5-(6-phenoxypyridin-3-yl)-4,5-dihydro-3H-1-thia-3,5,8-triazaacenaphthylene-2-carboxamide] the IC50 was 1.7 µM.
N[C@H]1CC[C@H](NC(=O)c2sc3nccc4c3c2NC(=O)N4c2ccc(Oc3ccccc3)nc2)C1 (racemic) [Example 290, racemic trans N-((1RS,3RS)-3-Aminocyclopentyl)-4-oxo-5-(6-phenoxypyridin-3-yl)-4,5-dihydro-3H-1-thia-3,5,8-triazaacenaphthylene-2-carboxamide] gave an IC50 of 2.24 µM.

Reference: patent US10934310B2, “Inhibitors of Bruton's tyrosine kinase and method of their use” (JANSSEN PHARMACEUTICA NV, priority 2015, dated 2021)
